What all share (format): biochemical
Holding throughout (details): FDA-approved drug screen

Assay [1] addresses T1, recombinant PRL-3 (Homo sapiens, UniProt O75365).
T1 construct: 6xHis (N, cleaved yes); made in house; host or cells: E. coli One Shot BL21 Star
Description: In vitro phosphatase assay (DiFMUP hydrolysis), PRL-3. Further: test concentration or dose not given here.

Assay [2] has as its target T2, recombinant PRL-1 (Homo sapiens, UniProt Q93096).
T2 construct: 6xHis (N, cleaved yes); made in house; host or cells: E. coli One Shot BL21 Star
T2 sequence (Q93096 1-173): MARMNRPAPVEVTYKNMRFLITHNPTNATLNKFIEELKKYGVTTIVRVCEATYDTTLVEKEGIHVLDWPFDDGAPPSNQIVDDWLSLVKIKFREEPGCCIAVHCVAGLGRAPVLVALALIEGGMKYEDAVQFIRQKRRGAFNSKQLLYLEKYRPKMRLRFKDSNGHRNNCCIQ
The assay is described as follows: In vitro phosphatase assay (DiFMUP hydrolysis), PRL-1. Further: test concentration or dose not given here.

The target in assay [3] is T3, recombinant PRL-2 (Homo sapiens, UniProt Q12974).
T3 construct: 6xHis (N, cleaved yes); made in house; host or cells: E. coli One Shot BL21 Star
T3 sequence (Q12974 1-167): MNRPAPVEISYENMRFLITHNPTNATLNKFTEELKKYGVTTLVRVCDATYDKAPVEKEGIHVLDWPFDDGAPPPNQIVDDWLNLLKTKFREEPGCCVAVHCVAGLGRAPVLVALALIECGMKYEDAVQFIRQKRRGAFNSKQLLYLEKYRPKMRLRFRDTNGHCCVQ
Description: In vitro phosphatase assay (DiFMUP hydrolysis), PRL-2.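 Further: PRL-2 activity read as DiFMUP hydrolysis after 20 min at room temperature with drug, enzyme first pre-reduced at 4 °C for 20 min.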

Counter-ions that a name gives are not always drawn.

T1 sequence (O75365 whole entry): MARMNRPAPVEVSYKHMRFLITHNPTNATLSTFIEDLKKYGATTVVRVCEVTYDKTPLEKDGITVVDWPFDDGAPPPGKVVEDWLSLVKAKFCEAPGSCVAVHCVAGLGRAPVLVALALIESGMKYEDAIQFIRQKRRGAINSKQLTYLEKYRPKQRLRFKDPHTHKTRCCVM

Take `OCC(O)CN1CCN(c2ccccc2)CC1` (stereo not drawn) [Dropropizine]: the “% Phosphatase Activity (compared to DMSO) PRL-3” value in assay [1] (compared to DMSO) was 76%. Further, in assay [2] (compared to DMSO), the “% Phosphatase Activity (compared to DMSO) PRL-1” value is given as 91%. Besides, the “% Phosphatase Activity (compared to DMSO) PRL-2” value in assay [3] (compared to DMSO) is 110%.
On the same counts, the results for `N#C/C(=C1/SC[C@@H](c2ccc(Cl)cc2Cl)S1)n1ccnc1` [Luliconazole] are 83%, 98% and 90%.
On the same counts, the results for `CN1CCC(=C2c3ccccc3CCc3cccnc32)CC1` [Azatadine dimaleate] are 84%, 103% and 108%.
In the same order, the values of `CCN(CC)C(=O)c1cccc(C)c1` [DEET] are 85%, 95% and 77%.
Regarding `Nc1ccc(S(=O)(=O)NC(=O)c2ccccc2)cc1` [Sulfabenzamide], the “% Phosphatase Activity (compared to DMSO) PRL-3” value in assay [1] (activity compared to DMSO) is on record as 83%. In addition, the “% Phosphatase Activity (compared to DMSO) PRL-1” value in assay [2] (activity compared to DMSO) is reported as 93%. Moreover, the “% Phosphatase Activity (compared to DMSO) PRL-2” value in assay [3] (activity compared to DMSO) is listed as 121%.
As for `CCN(c1cc(-c2ccc(CN3CCOCC3)cc2)cc(C(=O)NCc2c(C)cc(C)[nH]c2=O)c1C)C1CCOCC1` [EPZ-6438], the “% Phosphatase Activity (compared to DMSO) PRL-3” value in assay [1] (compared to DMSO) turned out to be 95%. In addition, the “% Phosphatase Activity (compared to DMSO) PRL-1” value in assay [2] (compared to DMSO) came out at 85%. Also, in assay [3] (compared to DMSO), the “% Phosphatase Activity (compared to DMSO) PRL-2” value is given as 77%.
On to `CC1(C)O[C@@H]2C[C@H]3[C@@H]4CCC5=CC(=O)C=C[C@]5(C)[C@@]4(F)[C@@H](O)C[C@]3(C)[C@]2(C(=O)CO)O1` [Triamcinolone Acetonide], for which the “% Phosphatase Activity (compared to DMSO) PRL-3” value in assay [1] (activity compared to DMSO) is on record as 78%. In assay [2] (activity compared to DMSO), the “% Phosphatase Activity (compared to DMSO) PRL-1” value was 99%. In assay [3] (activity compared to DMSO), the “% Phosphatase Activity (compared to DMSO) PRL-2” value amounted to 95%.
`NC(=O)C1CCCc2c1[nH]c1ccc(Cl)cc21` (stereo not drawn) [EX 527 (Selisistat)]: the “% Phosphatase Activity (compared to DMSO) PRL-3” value in assay [1] (compared to DMSO) is 84%. Further, in assay [2] (compared to DMSO), the “% Phosphatase Activity (compared to DMSO) PRL-1” value was 99%. For the same compound, in assay [3] (compared to DMSO), the “% Phosphatase Activity (compared to DMSO) PRL-2” value is 106%.
On the same counts, the results for `OC[C@H]1O[C@@H](O[C@@H]2[C@@H](CO)OC(O)(CO)[C@H]2O)[C@H](O)[C@@H](O)[C@H]1O` (mixture of isomers) [Lactulose] are 85%, 104% and 115%.
As to `Cc1cn(-c2cc(NC(=O)c3ccc(C)c(Nc4nccc(-c5cnccn5)n4)c3)cc(C(F)(F)F)c2)cn1` [Radotinib], in assay [1] (compared to DMSO), the “% Phosphatase Activity (compared to DMSO) PRL-3” value is 89%. In assay [2] (compared to DMSO), the “% Phosphatase Activity (compared to DMSO) PRL-1” value came to 96%. Also, in assay [3] (compared to DMSO), the “% Phosphatase Activity (compared to DMSO) PRL-2” value worked out at 83%.
On the same counts, the results for `NCCC(O)(P(=O)([O-])O)P(=O)([O-])O.[Na+].[Na+]` [Pamidronate Disodium] are 91%, 98% and 80%.
In the same order, the values of `CC(C(=O)O)c1ccc(CC2CCCC2=O)cc1` (stereo not drawn) [Loxoprofen] are 102%, 109% and 83%.
As to `Cn1c(=O)cc(N2CCC[C@@H](N)C2)n(Cc2cc(F)ccc2C#N)c1=O` [Trelagliptin], the “% Phosphatase Activity (compared to DMSO) PRL-3” value in assay [1] (activity compared to DMSO) is listed as 107%. The “% Phosphatase Activity (compared to DMSO) PRL-1” value in assay [2] (activity compared to DMSO) worked out at 106%. For the same compound, the “% Phosphatase Activity (compared to DMSO) PRL-2” value in assay [3] (activity compared to DMSO) was found to be 76%.
Consider `O=C(O)CCCC[C@@H]1SC[C@@H]2NC(=O)N[C@@H]21` [Biotin (Vitamin B7)], for which, in assay [1] (compared to DMSO), the “% Phosphatase Activity (compared to DMSO) PRL-3” value stood at 86%. Further, the “% Phosphatase Activity (compared to DMSO) PRL-1” value in assay [2] (compared to DMSO) is recorded as 104%. Further, in assay [3] (compared to DMSO), the “% Phosphatase Activity (compared to DMSO) PRL-2” value was determined as 101%.
`NCCS(=O)(=O)O` [Taurine]: the “% Phosphatase Activity (compared to DMSO) PRL-3” value in assay [1] (activity compared to DMSO) was determined as 94%. The “% Phosphatase Activity (compared to DMSO) PRL-1” value in assay [2] (activity compared to DMSO) came to 97%. The “% Phosphatase Activity (compared to DMSO) PRL-2” value in assay [3] (activity compared to DMSO) was found to be 77%.
For `CC(=O)CCCCn1c(=O)c2c(ncn2C)n(C)c1=O` [Pentoxifylline], the “% Phosphatase Activity (compared to DMSO) PRL-3” value in assay [1] (compared to DMSO) is reported as 92%. Moreover, the “% Phosphatase Activity (compared to DMSO) PRL-1” value in assay [2] (compared to DMSO) was found to be 85%. Also, the “% Phosphatase Activity (compared to DMSO) PRL-2” value in assay [3] (compared to DMSO) was 92%.
Take `Oc1cccc(O)c1` [Resorcinol]: the “% Phosphatase Activity (compared to DMSO) PRL-3” value in assay [1] (compared to DMSO) came out at 77%. Further, the “% Phosphatase Activity (compared to DMSO) PRL-1” value in assay [2] (compared to DMSO) came to 100%. The “% Phosphatase Activity (compared to DMSO) PRL-2” value in assay [3] (compared to DMSO) worked out at 88%.
As for `CCCCCCCCCC(=O)O[C@H]1CC[C@H]2[C@@H]3CCC4=CC(=O)CC[C@@H]4[C@H]3CC[C@]12C` [Nandrolone decanoate], the “% Phosphatase Activity (compared to DMSO) PRL-3” value in assay [1] (compared to DMSO) is 90%. The “% Phosphatase Activity (compared to DMSO) PRL-1” value in assay [2] (compared to DMSO) is on record as 93%. Further, in assay [3] (compared to DMSO), the “% Phosphatase Activity (compared to DMSO) PRL-2” value is reported as 94%.
On to `CCc1cc2c(cc1CC)CC(NC[C@H](O)c1ccc(O)c3[nH]c(=O)ccc13)C2` [Indacaterol Maleate], for which the “% Phosphatase Activity (compared to DMSO) PRL-3” value in assay [1] (compared to DMSO) worked out at 95%. Also, in assay [2] (compared to DMSO), the “% Phosphatase Activity (compared to DMSO) PRL-1” value amounted to 95%. For the same compound, in assay [3] (compared to DMSO), the “% Phosphatase Activity (compared to DMSO) PRL-2” value was found to be 100%.
In the case of `CN1CCN(c2cc3c(cc2F)c(=O)c(C(=O)O)cn3-c2ccc(F)cc2)CC1` [Difloxacin HCl], in assay [1] (compared to DMSO), the “% Phosphatase Activity (compared to DMSO) PRL-3” value is 114%. Further, the “% Phosphatase Activity (compared to DMSO) PRL-1” value in assay [2] (compared to DMSO) is 99%. Also, the “% Phosphatase Activity (compared to DMSO) PRL-2” value in assay [3] (compared to DMSO) was 102%.
Regarding `CCC1(c2ccc(N)cc2)CCC(=O)NC1=O` (stereo not drawn) [Aminoglutethimide], the “% Phosphatase Activity (compared to DMSO) PRL-3” value in assay [1] (compared to DMSO) is on record as 77%. Moreover, in assay [2] (compared to DMSO), the “% Phosphatase Activity (compared to DMSO) PRL-1” value is on record as 94%. Also, in assay [3] (compared to DMSO), the “% Phosphatase Activity (compared to DMSO) PRL-2” value is given as 107%.
In the same order, the values of `CCCCCCCC(=O)N[C@H](CN1CCCC1)[C@H](O)c1ccc2c(c1)OCCO2.O=C(O)C(O)C(O)C(=O)O` [Eliglustat Tartrate] are 96%, 96% and 91%.
Take `CCCCCCCCCCCCCCCC(=O)O[C@@H]1[C@@H](O)[C@@H](O)[C@@H]([C@H](NC(=O)[C@@H]2C[C@@H](CCC)CN2C)[C@H](C)Cl)O[C@@H]1SC.Cl` [Clindamycin palmitate HCl]: the “% Phosphatase Activity (compared to DMSO) PRL-3” value in assay [1] (compared to DMSO) turned out to be 106%. Also, in assay [2] (compared to DMSO), the “% Phosphatase Activity (compared to DMSO) PRL-1” value is listed as 107%. Also, the “% Phosphatase Activity (compared to DMSO) PRL-2” value in assay [3] (compared to DMSO) is on record as 133%.
On the same counts, the results for `COc1ncc(-c2ccc3nccc(-c4ccnnc4)c3c2)cc1NS(=O)(=O)c1ccc(F)cc1F` [GSK2126458 (GSK458)] are 88%, 94% and 85%.
In the same order, the values of `CC1(C)Cc2c(-c3ccccc3)c(-c3ccc(Cl)cc3)c(CC(=O)O)n2C1` [Licofelone] are 69%, 80% and 85%.
On the same counts, the results for `Cl.Cn1c(CCCC(=O)O)nc2cc(N(CCCl)CCCl)ccc21` [Bendamustine HCl] are 79%, 122% and 128%.
